How the values were obtained:
Format in all cases: cell-based
human TLR9 = human TLR9 (Homo sapiens (Human), UniProt Q9NR96); assay: TLR9 inhibition reporter assay (HEK-Blue, SEAP); conditions: HEK-Blue cells overexpressing human TLR9, ODN2006 5 nM stimulation
Summary of the method: (§1)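 After 30 min room-temperature pre-incubation with compound (0.05 nM–50 μM), reporter HEK-Blue lines were activated by ODN2006 5 nM for TLR9, R848 15.9 μM for TLR8 or gardiquimod 7.5 μM for TLR7. SEAP detected after 22 h, 37 °C; inhibition scaled between agonist+DMSO wells and known-inhibitor control.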

human TLR7 = human TLR7 (Homo sapiens (Human), UniProt Q9NYK1); assay: TLR7 inhibition reporter assay (HEK-Blue, SEAP); conditions: HEK-Blue cells overexpressing human TLR7, gardiquimod 7.5 μM stimulation
Summary of the method: as §1

human TLR8 = human TLR8 (Homo sapiens (Human), UniProt Q9NR97); assay: TLR8 inhibition reporter assay (HEK-Blue, SEAP); conditions: HEK-Blue cells overexpressing human TLR8, R848 15.9 μM stimulation
Summary of the method: as §1

Chain of human TLR9 (Q9NR96 26-1032): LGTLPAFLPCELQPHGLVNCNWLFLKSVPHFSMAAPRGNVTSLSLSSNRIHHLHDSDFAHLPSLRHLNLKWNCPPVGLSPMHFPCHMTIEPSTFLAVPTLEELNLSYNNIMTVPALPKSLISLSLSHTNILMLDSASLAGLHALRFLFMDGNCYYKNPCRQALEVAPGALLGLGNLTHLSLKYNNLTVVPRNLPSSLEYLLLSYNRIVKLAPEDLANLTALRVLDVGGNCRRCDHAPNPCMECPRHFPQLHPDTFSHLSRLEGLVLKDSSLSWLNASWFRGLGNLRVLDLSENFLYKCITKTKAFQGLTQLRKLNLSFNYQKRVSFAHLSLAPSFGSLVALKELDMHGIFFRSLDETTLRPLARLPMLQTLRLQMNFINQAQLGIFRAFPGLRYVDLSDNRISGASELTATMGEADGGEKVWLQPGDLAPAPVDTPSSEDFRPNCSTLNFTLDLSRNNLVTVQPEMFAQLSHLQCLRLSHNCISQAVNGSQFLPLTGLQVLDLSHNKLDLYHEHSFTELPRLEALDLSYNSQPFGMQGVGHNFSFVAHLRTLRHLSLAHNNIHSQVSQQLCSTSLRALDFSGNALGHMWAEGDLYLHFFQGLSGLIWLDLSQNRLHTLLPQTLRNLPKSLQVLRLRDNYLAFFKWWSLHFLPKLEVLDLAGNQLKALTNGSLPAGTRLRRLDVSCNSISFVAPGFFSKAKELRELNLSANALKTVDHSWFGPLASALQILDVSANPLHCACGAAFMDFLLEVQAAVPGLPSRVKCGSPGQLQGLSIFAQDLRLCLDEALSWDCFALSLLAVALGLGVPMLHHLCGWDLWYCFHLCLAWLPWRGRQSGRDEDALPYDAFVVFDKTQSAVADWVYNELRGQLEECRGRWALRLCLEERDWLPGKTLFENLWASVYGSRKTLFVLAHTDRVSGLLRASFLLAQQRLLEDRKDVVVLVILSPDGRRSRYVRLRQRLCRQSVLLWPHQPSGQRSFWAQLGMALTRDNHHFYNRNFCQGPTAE
Chain of human TLR8 (Q9NR97 27-1041): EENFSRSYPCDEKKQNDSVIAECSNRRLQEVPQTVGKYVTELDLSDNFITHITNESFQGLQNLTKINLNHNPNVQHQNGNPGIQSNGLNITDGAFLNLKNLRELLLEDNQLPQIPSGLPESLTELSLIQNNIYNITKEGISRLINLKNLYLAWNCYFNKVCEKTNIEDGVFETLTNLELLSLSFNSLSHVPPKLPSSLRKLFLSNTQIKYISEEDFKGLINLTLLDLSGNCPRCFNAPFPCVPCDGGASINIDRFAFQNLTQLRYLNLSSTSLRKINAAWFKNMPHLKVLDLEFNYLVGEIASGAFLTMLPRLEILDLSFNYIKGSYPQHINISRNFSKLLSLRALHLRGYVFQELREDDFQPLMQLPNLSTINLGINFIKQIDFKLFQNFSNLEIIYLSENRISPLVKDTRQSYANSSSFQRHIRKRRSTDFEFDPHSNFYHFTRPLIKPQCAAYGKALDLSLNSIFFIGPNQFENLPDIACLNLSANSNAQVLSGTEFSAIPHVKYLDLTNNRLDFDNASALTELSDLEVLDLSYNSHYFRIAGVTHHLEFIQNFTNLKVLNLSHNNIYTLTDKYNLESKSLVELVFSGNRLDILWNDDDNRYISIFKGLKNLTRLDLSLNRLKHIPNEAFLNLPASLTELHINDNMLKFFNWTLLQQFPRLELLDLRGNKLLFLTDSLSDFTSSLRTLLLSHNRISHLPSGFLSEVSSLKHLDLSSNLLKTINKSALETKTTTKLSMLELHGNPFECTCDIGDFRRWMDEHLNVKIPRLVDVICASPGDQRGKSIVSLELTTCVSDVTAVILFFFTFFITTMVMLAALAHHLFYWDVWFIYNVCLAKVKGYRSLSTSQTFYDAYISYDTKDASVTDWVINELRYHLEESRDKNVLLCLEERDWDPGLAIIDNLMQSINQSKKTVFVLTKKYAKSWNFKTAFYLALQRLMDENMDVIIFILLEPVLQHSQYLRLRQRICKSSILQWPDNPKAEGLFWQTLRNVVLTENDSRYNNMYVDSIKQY
Chain of human TLR7 (Q9NYK1 27-1049): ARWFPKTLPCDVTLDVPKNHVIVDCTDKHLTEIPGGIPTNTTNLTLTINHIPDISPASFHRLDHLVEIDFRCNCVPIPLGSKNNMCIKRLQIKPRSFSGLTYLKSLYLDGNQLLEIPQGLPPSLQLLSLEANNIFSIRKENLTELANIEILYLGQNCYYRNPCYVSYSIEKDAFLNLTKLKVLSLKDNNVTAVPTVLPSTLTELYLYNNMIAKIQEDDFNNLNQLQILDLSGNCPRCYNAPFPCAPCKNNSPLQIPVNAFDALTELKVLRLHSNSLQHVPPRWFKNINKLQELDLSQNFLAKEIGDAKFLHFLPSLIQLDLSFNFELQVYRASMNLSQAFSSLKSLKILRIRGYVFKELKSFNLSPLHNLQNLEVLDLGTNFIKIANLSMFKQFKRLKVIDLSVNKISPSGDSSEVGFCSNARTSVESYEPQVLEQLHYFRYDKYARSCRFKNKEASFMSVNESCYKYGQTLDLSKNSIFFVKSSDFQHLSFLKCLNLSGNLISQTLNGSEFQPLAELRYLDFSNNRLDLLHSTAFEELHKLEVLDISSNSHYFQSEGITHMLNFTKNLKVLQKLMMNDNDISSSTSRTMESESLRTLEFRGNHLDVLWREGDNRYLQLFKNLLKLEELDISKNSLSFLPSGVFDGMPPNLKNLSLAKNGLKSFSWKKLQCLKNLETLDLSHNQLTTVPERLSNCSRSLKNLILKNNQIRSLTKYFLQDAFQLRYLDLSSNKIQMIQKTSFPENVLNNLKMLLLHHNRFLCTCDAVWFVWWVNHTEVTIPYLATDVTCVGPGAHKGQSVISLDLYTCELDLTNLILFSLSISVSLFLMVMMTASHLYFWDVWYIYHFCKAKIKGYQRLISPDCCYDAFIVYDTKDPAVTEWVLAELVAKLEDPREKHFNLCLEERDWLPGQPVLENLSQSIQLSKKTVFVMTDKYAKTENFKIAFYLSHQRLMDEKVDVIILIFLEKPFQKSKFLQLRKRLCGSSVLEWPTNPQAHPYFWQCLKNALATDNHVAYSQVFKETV

SMILES | IC50 (human TLR9) [nM] | IC50 (human TLR7) [nM] | IC50 (human TLR8) [nM]
COc1ccc(-c2[nH]c3ccc(-c4cccc(C(=O)N5CC[C@@H](O)C5)c4)cc3c2CC(F)(F)F)cc1OC [Example 34, (R)-(3-(2-(3,4-dimethoxyphenyl)-3-(2,2,2-trifluoroethyl)-1H-indol-5-yl)phenyl)(3-hydroxypyrrolidin-1-yl)methanone] | 14700 | 776 | 199
Cc1cc(-c2[nH]c3ccc(-c4nnc(Cc5cccnc5)o4)cc3c2C(C)C)ccn1 [Example 74, 2-(3-isopropyl-2-(2-methylpyridin-4-yl)-1H-indol-5-yl)-5-(pyridin-3-ylmethyl)-1,3,4-oxadiazole] | 15800 | 132 | 21
CCc1c(-c2ccc(OC)c(OC)c2)[nH]c2ccc(-c3nnc(C(=O)N(C)C)o3)cc12 [Example 38, 5-(2-(3,4-dimethoxyphenyl)-3-ethyl-1H-indol-5-yl)-N,N-dimethyl-1,3,4-oxadiazole-2-carboxamide] | > 50000 | 1030 | 151
CNCCN1CCC(c2nnc(-c3ccc4[nH]c(-c5ccc(OC)c(OC)c5)c(C(C)C)c4c3)o2)CC1 [Example 24, 2-(4-(5-(2-(3,4-dimethoxyphenyl)-3-isopropyl-1H-indol-5-yl)-1,3,4-oxadiazol-2-yl)piperidin-1-yl)-N-methylethan-1-amine] | 179 | 56 | 3.7
COc1ccc(-c2[nH]c3ccc(-c4nnc(CN5CC[C@H](NC(C)=O)C5)o4)cc3c2C(C)C)cc1OC [Example 117, (S)—N-(1-((5-(2-(3,4-dimethoxyphenyl)-3-isopropyl-1H-indol-5-yl)-1,3,4-oxadiazol-2-yl)methyl)pyrrolidin-3-yl)acetamide] | > 50000 | 704 | 50
Cc1cc(-c2[nH]c3ccc(-c4nnc(C[C@@H]5CCCN5)o4)cc3c2C(C)C)ccn1 [Example 71, (S)-2-(3-isopropyl-2-(2-methylpyridin-4-yl)-1H-indol-5-yl)-5-(pyrrolidin-2-ylmethyl)-1,3,4-oxadiazole] | 6910 | 39 | 1.4
CCN(CC)C(=O)C1CCCN(C(=O)c2nnc(-c3ccc4[nH]c(-c5ccc(OC)c(OC)c5)c(C(C)C)c4c3)o2)C1 (stereo not drawn) [Example 89, 1-(5-(2-(3,4-dimethoxyphenyl)-3-isopropyl-1H-indol-5-yl)-1,3,4-oxadiazole-2-carbonyl)-N,N-diethylpiperidine-3-carboxamide] | 9640 | 1490 | 217
COc1ccc(-c2[nH]c3ccc(-c4nnc(CNCCNC(C)=O)o4)cc3c2C(C)C)cc1OC [Example 108, N-(2-(((5-(2-(3,4-dimethoxyphenyl)-3-isopropyl-1H-indol-5-yl)-1,3,4-oxadiazol-2-yl)methyl)amino)ethyl)acetamide] | > 50000 | 1980 | 220
COc1ccc(-c2[nH]c3ccc(-c4nnc([C@@H]5CCCNC5)o4)cc3c2CC(F)(F)F)cc1OC [Example 56, (R)-2-(2-(3,4-dimethoxyphenyl)-3-(2,2,2-trifluoroethyl)-1H-indol-5-yl)-5-(piperidin-3-yl)-1,3,4-oxadiazole] | 1270 | 47 | 25
COc1ccc(-c2[nH]c3ccc(-c4cccc(C(=O)NC5CCN(C(C)C)CC5)c4)cc3c2C(C)C)cc1OC [Example 8, 3-(2-(3,4-dimethoxyphenyl)-3-isopropyl-1H-indol-5-yl)-N-(1-isopropylpiperidin-4-yl)benzamide] | 1810 | 114 | 29

More lines, now with the values ahead:

IC50 (human TLR9) [nM] | IC50 (human TLR7) [nM] | IC50 (human TLR8) [nM] | SMILES
2680 | 539 | 7.3 | CCc1c(-c2ccc(OC)c(OC)c2)[nH]c2ccc(-c3noc(CCNC)n3)cc12 [Example 460, 2-(3-(2-(3,4-dimethoxyphenyl)-3-ethyl-1H-indol-5-yl)-1,2,4-oxadiazol-5-yl)-N-methylethan-1-amine]
1830 | 216 | 9.9 | CC(C)c1c(-c2ccnc3[nH]ncc23)[nH]c2ccc(-c3nc4n(n3)CCN(C3CCN(C(C)C)CC3)C4)cc12 [Example 211, 2-(3-isopropyl-2-(1H-pyrazolo[3,4-b]pyridin-4-yl)-1H-indol-5-yl)-7-(1-isopropylpiperidin-4-yl)-5,6,7,8-tetrahydro-[1,2,4]triazolo[1,5-a]pyrazine]
441 | 18 | 2 | Cc1cc(-c2[nH]c3ccc(-c4nnc(C(=O)NCCN(C)C)s4)cc3c2C(C)C)ccn1 [Example 133, N-(2-(dimethylamino)ethyl)-5-(3-isopropyl-2-(2-methylpyridin-4-yl)-1H-indol-5-yl)-1,3,4-thiadiazole-2-carboxamide]
33000 | 305 | 81 | COc1ccc(-c2[nH]c3ccc(-c4cc[nH]c4)cc3c2C(C)C)cc1OC [Example 465, 2-(3,4-dimethoxyphenyl)-3-isopropyl-5-(1H-pyrrol-3-yl)-1H-indole]
11500 | 63 | 84 | Cc1cc(-c2[nH]c3ccc(-c4cc(F)c5nc(C)cn5c4)cc3c2C(C)C)cc(C)n1 [Example 366, 6-(2-(2,6-dimethylpyridin-4-yl)-3-isopropyl-1H-indol-5-yl)-8-fluoro-2-methylimidazo[1,2-a]pyridine]
601 | 18 | 12 | Cc1cc(-c2[nH]c3ccc(-c4nc(C(=O)NCCCN5CCCCC5)co4)cc3c2C(C)C)cc(C)n1 [Example 275, 2-(2-(2,6-dimethylpyridin-4-yl)-3-isopropyl-1H-indol-5-yl)-N-(3-(piperidin-1-yl)propyl)oxazole-4-carboxamide]
12100 | 1060 | 109 | Cc1oc(-c2ccc3[nH]c(-c4ccnc5[nH]ncc45)c(C(C)C)c3c2)nc1C(=O)NCC1CCNC1 (stereo not drawn) [Example 212, 2-(3-isopropyl-2-(1H-pyrazolo[3,4-b]pyridin-4-yl)-1H-indol-5-yl)-5-methyl-N-(pyrrolidin-3-ylmethyl)oxazole-4-carboxamide]
2600 | 163 | 147 | CNCCN1CCn2nc(-c3ccc4[nH]c(-c5ccnc(C)c5)c(C(C)C)c4c3)c(C(=O)NC)c2C1 [Example 219, 2-(3-isopropyl-2-(2-methylpyridin-4-yl)-1H-indol-5-yl)-N-methyl-5-(2-(methylamino)ethyl)-4,5,6,7-tetrahydropyrazolo[1,5-a]pyrazine-3-carboxamide]
517 | 7.1 | 9.7 | Cc1cc(-c2[nH]c3ccc(-c4ccnc(N5CCN(C)CC5)c4)cc3c2C(C)C)cc(C)n1 [Example 319, 2-(2,6-dimethylpyridin-4-yl)-3-isopropyl-5-(2-(4-methylpiperazin-1-yl)pyridin-4-yl)-1H-indole]
2340 | 41 | 15 | Cc1cc(-c2[nH]c3ccc(-c4ccc(N5CCCC5)nc4)cc3c2C(C)C)cc(C)n1 [Example 336, 2-(2,6-dimethylpyridin-4-yl)-3-isopropyl-5-(6-(pyrrolidin-1-yl)pyridin-3-yl)-1H-indole]
205 | 4.4 | 1.4 | Cc1cc(-c2[nH]c3ccc(-c4nnc(C5CCCN(C(C)C)C5)[nH]4)cc3c2C(C)C)cc(C)n1 (stereo not drawn) [Example 357, 2-(2,6-dimethylpyridin-4-yl)-3-isopropyl-5-(5-(1-isopropylpiperidin-3-yl)-4H-1,2,4-triazol-3-yl)-1H-indole]

— US11420958B2, “Aryl and heteroaryl substituted indole compounds” (BRISTOL-MYERS SQUIBB COMPANY, priority 2017, dated 2022)
